We go through eleven molecules from ChEMBL document CHEMBL1201862, “PubChem BioAssay data set” (2004).

SMILES strings stand for the structures.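 Where inhibition never reached the appropriate level, the endpoint shown equals the highest concentration tested. Otherwise, values were interpolated linearly from a five-concentration, 48-hour dose response in 96-well plates. Abbreviation: GI50, concentration required for 50% inhibition of growth.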 Calls of active or inactive are those of the source. Rule as the data show it: active = GI50 up to about 1.1 µM and inactive = higher.

Among the test systems are HCT-116; UO-31; KM12; HT-29; NCI-H522; MOLT-4; LOX IMVI; Hs-578T; PC-3; DU-145; UACC-257; T47D; ACHN; NCI-H460; Malme-3M; SK-MEL-5; SK-OV-3; HL-60; BT-549; RXF 393.
What all share (assay): DTP human tumour cell line panel, 48 h

In the case of `Nn1c(Cc2ccccc2)n[nH]c1=O`, the GI50 with HCT-116, in the assay with UO-31, with KM12, in the assay on HT-29, with NCI-H522 and in the assay with MOLT-4 was > 100 µM (inactive) in each case. Moreover, the GI50 in the assay with LOX IMVI, in the assay with Hs-578T, in the assay with PC-3, in the assay with DU-145, in the assay with UACC-257 and in the assay on T47D was > 100 µM (inactive) in each case. For the same molecule, the GI50 in the assay on ACHN was > 100 µM (inactive); in the assay with NCI-H460, > 10 µM (inactive); with Malme-3M it was 37.2 µM (inactive); in the assay with SK-MEL-5, > 100 µM (inactive); with SK-OV-3, > 100 µM (inactive); in the assay with HL-60, > 100 µM (inactive). Besides, the GI50 in the assay on BT-549 was > 100 µM (inactive).
With `C[N+](C)(C)CC(=O)N/N=C(\Cc1nc2ccc([N+](=O)[O-])cc2nc1O)C(=O)Nc1nc2ccc([N+](=O)[O-])cc2s1`, the GI50 with HCT-116 is 51.9 µM (inactive); in the assay with UO-31, 25.7 µM (inactive); in the assay on KM12, 45.2 µM (inactive); in the assay with HT-29, 45.6 µM (inactive); in the assay with NCI-H522, 13.3 µM (inactive); with MOLT-4, 49.2 µM (inactive). Further, the GI50 is 35.6 µM (inactive) in the assay on LOX IMVI; 27.1 µM (inactive) in the assay with PC-3; 39.4 µM (inactive) with DU-145; 41.3 µM (inactive) in the assay with RXF 393; > 100 µM (inactive) with UACC-257; 21.9 µM (inactive) in the assay with T47D. Further, the GI50 was 52.2 µM (inactive) in the assay on ACHN; 23.4 µM (inactive) in the assay on NCI-H460; 37.3 µM (inactive) in the assay with SK-MEL-5; 34 µM (inactive) in the assay with SK-OV-3; > 100 µM (inactive) in the assay with HL-60; 29.3 µM (inactive) with BT-549.
On to `CC(=O)NC1(C)CCC(C(C)(C)NC(C)=O)CC1` (stereo not drawn), for which the GI50 with HCT-116, in the assay with UO-31, in the assay with KM12, in the assay on HT-29, with MOLT-4 and with LOX IMVI was > 100 µM (inactive) in each case. Besides, the GI50 with Hs-578T, in the assay on PC-3, with DU-145, with RXF 393, with UACC-257 and in the assay with ACHN was > 100 µM (inactive) in each case. Moreover, the GI50 in the assay with NCI-H460, with Malme-3M, with SK-MEL-5, in the assay on SK-OV-3, in the assay on HL-60 and in the assay on BT-549 was > 100 µM (inactive) in each case.
Turning to `C[C@H](CCC(=O)O)[C@H]1CC[C@H]2[C@@H]3[C@H](O)C[C@@H]4C[C@H](O)CC[C@]4(C)[C@H]3CC[C@]12C` [CHENODIOL], the GI50 in the assay on HCT-116 is 33.8 µM (inactive); with UO-31, 21.4 µM (inactive); with KM12 it was 33.3 µM (inactive); in the assay with HT-29, 24.3 µM (inactive); in the assay with NCI-H522, 25.5 µM (inactive); with MOLT-4 it was 24.7 µM (inactive). Also, the GI50 in the assay on LOX IMVI was 32.5 µM (inactive); in the assay with PC-3, 36.4 µM (inactive); with DU-145, 43.2 µM (inactive); with RXF 393, 44.7 µM (inactive); in the assay with UACC-257 it was 41.8 µM (inactive); in the assay on T47D, 40.2 µM (inactive). The GI50 in the assay on ACHN was 46.8 µM (inactive); in the assay on NCI-H460, 27.1 µM (inactive); with Malme-3M, 32.2 µM (inactive); with HL-60, 34 µM (inactive); with BT-549 it was 36.3 µM (inactive).
For `COc1cc(OC2OC(COC(=O)c3cc(O)c(O)c(O)c3)C(O)C(O)C2O)ccc1O` (stereo not drawn), the GI50 in the assay on HCT-116 was > 100 µM (inactive); in the assay with UO-31, 33.2 µM (inactive); in the assay with KM12, 88.1 µM (inactive); with HT-29, 70.5 µM (inactive); in the assay with NCI-H522, 48 µM (inactive); with MOLT-4, 53.1 µM (inactive). In addition, the GI50 in the assay with LOX IMVI is 29.5 µM (inactive); with Hs-578T, > 100 µM (inactive); with PC-3, 26.2 µM (inactive); with DU-145 it was > 100 µM (inactive); in the assay with RXF 393 it was > 100 µM (inactive); in the assay with UACC-257, > 100 µM (inactive). The GI50 in the assay on ACHN is 55.1 µM (inactive); in the assay on NCI-H460 it was > 100 µM (inactive); in the assay with Malme-3M, > 100 µM (inactive); in the assay with SK-MEL-5, > 100 µM (inactive); in the assay on HL-60, 93.1 µM (inactive); in the assay on BT-549 it was 47.3 µM (inactive).
In the case of `CNC(=S)NN=C1NCCCCN1`, the GI50 with HCT-116, in the assay on UO-31, in the assay on KM12, with HT-29, in the assay with NCI-H522 and in the assay on MOLT-4 was > 100 µM (inactive) each time. The GI50 in the assay on LOX IMVI is > 100 µM (inactive); in the assay on Hs-578T it was 83.9 µM (inactive); in the assay with PC-3, > 100 µM (inactive); in the assay on RXF 393 it was > 100 µM (inactive); in the assay with UACC-257, > 100 µM (inactive); in the assay with T47D, > 100 µM (inactive). For the same molecule, the GI50 in the assay with ACHN, in the assay on NCI-H460, in the assay on Malme-3M, in the assay with SK-MEL-5, in the assay on SK-OV-3 and in the assay on HL-60 was > 100 µM (inactive) throughout. For the same molecule, the GI50 with BT-549 was > 100 µM (inactive).
Take `OC1CCN2Cc3ccccc3N=C12` (stereo not drawn): the GI50 with HCT-116, with UO-31, in the assay on KM12, with HT-29, in the assay on MOLT-4 and in the assay on LOX IMVI was > 100 µM (inactive) each time. Besides, the GI50 in the assay on Hs-578T, with PC-3, with DU-145, with RXF 393, in the assay on UACC-257 and in the assay on ACHN was > 100 µM (inactive) throughout. Further, the GI50 in the assay on NCI-H460, in the assay on Malme-3M, in the assay on SK-MEL-5, in the assay on SK-OV-3, with HL-60 and in the assay with BT-549 was > 100 µM (inactive) each time.
Consider `CC1(C)CC(=O)c2c(nc3ccc4ccccc4c3c2-c2ccc(NC(=O)CCCCC(=O)Nc3ccc(-c4c5c(nc6ccc7ccccc7c46)CC(C)(C)CC5=O)cc3)cc2)C1`, for which the GI50 with HCT-116, in the assay on UO-31, with KM12, in the assay on HT-29, in the assay on MOLT-4 and in the assay with LOX IMVI was > 100 µM (inactive) throughout. Moreover, the GI50 in the assay on Hs-578T, in the assay on PC-3, in the assay on DU-145, in the assay on UACC-257, in the assay with T47D and in the assay with ACHN was > 100 µM (inactive) each time. In addition, the GI50 with NCI-H460, in the assay on SK-MEL-5, in the assay on SK-OV-3, in the assay with HL-60 and in the assay with BT-549 was > 100 µM (inactive) in each case.
Turning to `CC1=C2O[C@]3(O)C=C2C(=C(O)C1=O)[C@@H]1O[C@H](CC[C@H](C)/C=C(\C)C[C@@H](C)C[C@@H]3C)[C@H](C)[C@H](O)[C@H]1C` [KENDOMYCIN], the GI50 in the assay on HCT-116 is 0.176 µM (active); in the assay with UO-31, 0.193 µM (active); in the assay with KM12, 0.661 µM (active); with HT-29, 0.181 µM (active); in the assay with NCI-H522, 0.218 µM (active); in the assay on MOLT-4, 0.097 µM (active). Moreover, the GI50 is 0.24 µM (active) with LOX IMVI; 0.289 µM (active) with Hs-578T; 0.269 µM (active) with PC-3; 0.265 µM (active) in the assay with DU-145; 0.161 µM (active) with RXF 393; 0.239 µM (active) with UACC-257. In addition, the GI50 in the assay with ACHN was 0.132 µM (active); with NCI-H460, 0.728 µM (active); in the assay on Malme-3M, 0.194 µM (active); in the assay with SK-MEL-5 it was 0.498 µM (active); in the assay with SK-OV-3, 1.12 µM (active); in the assay with HL-60, 0.145 µM (active). Further, in the assay with BT-549, the 50% growth inhibitory concentration (GI50) was 0.331 µM (active).
With `CC(=O)Nc1ccc(C(=O)NN2C(=O)C(Cl)C2c2ccc(Cl)cc2)cc1` (stereo not drawn), the GI50 with HCT-116 is > 100 µM (inactive); with UO-31, > 100 µM (inactive); with KM12, > 100 µM (inactive); in the assay on HT-29, > 100 µM (inactive); in the assay with NCI-H522, 38.8 µM (inactive); with MOLT-4 it was > 100 µM (inactive). Besides, the GI50 with Hs-578T was 8.83 µM (inactive); in the assay with PC-3, > 100 µM (inactive); in the assay on DU-145 it was > 100 µM (inactive); with UACC-257 it was > 100 µM (inactive); in the assay with T47D, > 100 µM (inactive); in the assay with ACHN, > 57.5 µM (inactive). In addition, the GI50 is > 90.4 µM (inactive) in the assay on NCI-H460; > 42.9 µM (inactive) in the assay on Malme-3M; > 100 µM (inactive) with SK-MEL-5; 25.4 µM (inactive) in the assay with SK-OV-3; > 100 µM (inactive) with HL-60; 72.6 µM (inactive) in the assay on BT-549.
Turning to `CC(C)=CCC[C@]1(C)C=Cc2c(O)c3c(c(CC=C(C)C)c2O1)O[C@]12C(=C[C@@H]4CC1C(C)(C)O[C@@]2(C/C=C(/C)C(=O)O)C4=O)C3=O`, the GI50 in the assay on HCT-116 was 0.256 µM (active); in the assay on UO-31, 1.33 µM (inactive); in the assay with KM12, 1.02 µM (active); in the assay on HT-29 it was 0.461 µM (active); in the assay on NCI-H522, 0.406 µM (active); with MOLT-4, 0.305 µM (active). The 50% growth inhibitory concentration (GI50) with LOX IMVI is 0.442 µM (active); in the assay on Hs-578T, 0.673 µM (active); in the assay on PC-3, 0.802 µM (active); in the assay on RXF 393, 0.5 µM (active); in the assay on UACC-257, 2.31 µM (inactive); in the assay with ACHN, 0.419 µM (active). For the same molecule, the GI50 in the assay on NCI-H460 was 1.24 µM (inactive); with Malme-3M it was 1.19 µM (inactive); in the assay on SK-OV-3, 3.01 µM (inactive); in the assay on HL-60, 0.285 µM (active); in the assay on BT-549, 1.91 µM (inactive).
